Data from patent US6706664B1, “Benzoxazole compounds, process for the preparation thereof and herbicides” (UBE Industries, Ltd., priority 1999, dated 2004).

Columns and labels:
Design in all cases: key: 0: normal development; 1: Less damaged; 2: Slightly damaged; 3: Moderately damaged; 4: Severely damaged; 5: All killed
young rice plant = test: Herbicidal test for paddy field; format: in vivo; conditions: paddy field pot, 500 g/ha dropwise at 1.5 leaf stage of barnyardgrass, 3 weeks, rank vs non-treated
How it was run: (§1)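 Ube alluvial soil in pots flooded to 3 cm water depth, sown with seeds or tubers. Wettable powder diluted in water with 0.05% surfactant was dripped onto the water at 500 g/ha when barnyardgrass reached the 1.5-leaf stage. After 3 weeks in a glasshouse at an average of 25° C, damage was scored 0 (normal) to 5 (all killed) against untreated pots.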

barnyardgrass [1] = test: Soil treatment test for upland field; format: in vivo, Echinochloa crusgalli; conditions: 500 g/ha, glass house 25° C., 3 weeks
How it was run: (§2)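 Seeds planted in Wagner pots of Ube soil (alluvial) and covered. Wettable powder diluted in 0.05% surfactant water, sprayed uniformly onto soil at 500 g/ha effective rate. Grown 3 weeks, glasshouse, mean 25° C, then damage rated visually 0–5.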

Large crabgrass [2] = test: Soil treatment test for upland field; format: in vivo, Digitaria adscendens; conditions: 500 g/ha, glass house 25° C., 3 weeks
How it was run: as §2

Large crabgrass [3] = test: Foliar spread test for upland field; format: in vivo, Digitaria adscendens; conditions: foliar spray 500 ppm, 3 weeks, rank vs non-treated
How it was run: (§3)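 Post-emergence foliar spray, 500 ppm (wettable powder in water + 0.5% surfactant), on ~2-week-old plants grown in volcanic ash soil; glasshouse, avg 25° C, 3 wk; visual damage score 0–5.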

barnyardgrass [4] = test: Foliar spread test for upland field; format: in vivo, Echinochloa crusgalli; conditions: foliar spray 500 ppm, 3 weeks, rank vs non-treated
How it was run: as §3

cotton = test: Foliar spread test for upland field; format: in vivo; conditions: foliar spray 500 ppm, 3 weeks, rank vs non-treated
How it was run: (§4)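 Crop seeds sown in volcanic ash soil in Wagner pots were raised about 2 weeks in a glasshouse, then sprayed with wettable-powder formulations diluted to 500 ppm in water with 0.5% surfactant. After 3 weeks at an average 25° C., injury was scored 0 (normal) to 5 (all killed).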

wheat = test: Foliar spread test for upland field; format: in vivo; conditions: foliar spray 500 ppm, 3 weeks, rank vs non-treated
How it was run: as §4

soybean = test: Foliar spread test for upland field; format: in vivo; conditions: foliar spray 500 ppm, 3 weeks, rank vs non-treated
How it was run: as §4

corn = test: Foliar spread test for upland field; format: in vivo; conditions: foliar spray 500 ppm, 3 weeks, rank vs non-treated
How it was run: as §4

sugar beat = test: Foliar spread test for upland field; format: in vivo; conditions: foliar spray 500 ppm, 3 weeks, rank vs non-treated
How it was run: as §4

solgum = test: Foliar spread test for upland field; format: in vivo; conditions: foliar spray 500 ppm, 3 weeks, rank vs non-treated
How it was run: as §4

flat sedge = test: Herbicidal test for paddy field; format: in vivo, Cyperus serotinus; conditions: paddy field pot, 500 g/ha dropwise at 1.5 leaf stage of barnyardgrass, 3 weeks, rank vs non-treated
How it was run: as §1

green foxtail = test: Foliar spread test for upland field; format: in vivo, Setaria viridis; conditions: foliar spray 500 ppm, 3 weeks, rank vs non-treated
How it was run: as §3

livid amaranth = test: Soil treatment test for upland field; format: in vivo, Amaranthus lividus; conditions: 500 g/ha, glass house 25° C., 3 weeks
How it was run: as §2

bulrush = test: Herbicidal test for paddy field; format: in vivo, Scrips juncoides; conditions: paddy field pot, 500 g/ha dropwise at 1.5 leaf stage of barnyardgrass, 3 weeks, rank vs non-treated
How it was run: as §1

SMILES	Effect Young rice plant (young rice plant)	Effects Barnyardgrass (barnyardgrass [1])	Effects Large crabgrass (Large crabgrass [2])	Effects Large crabgrass (Large crabgrass [3])	Effects Barnyardgrass (barnyardgrass [4])	Effects Cotton (cotton)	Effects Wheat (wheat)	Effects Soybean (soybean)	Effects Corn (corn)	Effects Sugar beat (sugar beat)	Effects Solgum (solgum)	Effect Flat sedge (flat sedge)	Effects Green foxtail (green foxtail)	Effects Livid amaranth (livid amaranth)	Effect Bulrush (bulrush)
CCC(Oc1cccc(C(F)(F)F)c1)c1nc2cc(Br)ccc2o1 (stereo not shown) [Compound 166]	1	4	5	3	1	2	1	4	3	4	1	4	3	5	
CCC(Oc1cccc(C(F)(F)F)c1)c1nc2cc(Cl)c(C)cc2o1 (stereo not shown) [Compound 339, 1-(5-chloro-6-methylbenzoxazol-2-yl)-1-(3-(trifluoromethyl)phenoxy)propane]	1	3	5	3	2	3	1	3	2	3	1		2	5	4
CCCC(Oc1cccc(C(F)(F)F)c1)c1nc2cc(Cl)ccc2o1 (stereo not shown) [Compound 142, 1-(5-chlorobenzoxazol-2-yl)-1-(3-(trifluoromethyl)phenoxy)butane]	1	3	5	3	2	3	3	4	3	3	2		2	5	3
CCC(Oc1cccc(OC(F)(F)F)c1)c1nc2cc(C#N)c(C#N)cc2o1 (stereo not shown) [Compound 527]	2	4	5	2			2			5	1	3	5	5	3
CCCC(Oc1ccc(F)c(C(F)(F)F)c1)c1nc2cc(C#N)c(Cl)cc2o1 (stereo not shown) [Compound 533]	2	3	5	3	2		2		2	5	2	2	4	5	
CCC(Oc1cccc(C(F)(F)F)c1)c1nc2cc(C#N)c(Cl)cc2o1 (stereo not shown) [Compound 529]		5	5	4	3		2			5	3	4	5	5	5
CCCC(Oc1cccc(C(F)(F)F)c1)c1nc2cc(C#N)c(Cl)cc2o1 (stereo not shown) [Compound 532]		5	5	4	2				2	5	2	2	5	5	5
CCC(Oc1cccc(C(F)(F)F)c1)c1nc2cc(F)c(C(F)(F)F)cc2o1 (stereo not shown) [Compound 471]		5	5	5			2		2	5	3	5	5	5	2
CCC(Oc1ccc(F)c(C(F)(F)F)c1)c1nc2cc(Br)ccc2o1 (stereo not shown) [Compound 165]	2	5	5	3	2	3	2	5	2		2	3	4	5	
CCCC(Oc1ccc(F)c(C(F)(F)F)c1)c1nc2cc(C(F)(F)F)ccc2o1 (stereo not shown) [Compound 199]	1	2	5	2	2	3	1	4	2	3	1		2	5	5
CCCC(Oc1cccc(C(F)(F)F)c1)c1nc2cc(C#N)c(C#N)cc2o1 (stereo not shown) [Compound 317]	1	3	5				2		2	5	1	5	5	5	3
